{
  "source": "patent US20260345555A1",
  "about": "“Compositions and Methods for Protecting Salivary Glands from Off-Target Radiation Damage” (University of Rochester, priority 2022, published 2026)",
  "key": {"[1]": {"tested_on": "Reduced glutathione in salivary gland cell clusters (SGm)", "assay": "Glutathione assay in salivary gland tissue chip, 4 days post-radiation (15 Gy); also first screen of Selleck library at 100 μM; on Glutathione (radioprotection): key: +: radioprotection; ~: partial radioprotection; —: no radioprotection", "format": "cell-based, mouse", "details": "for prevention of radiation-induced reduction of glutathione levels: 4 days post-radiation; for Estimated EC50, Glutathione: nonlinear fit in Prism of dose response curves", "method_in_brief": "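Mouse submandibular gland cell clusters (20–100 μm) in PEG hydrogel on microbubble chips, cultured 4 days to form SGm, then dosed 30 min before and during 15 Gy irradiation and washed out 30 min after. Glutathione measured 4 days post-radiation; library compounds screened at 100 μM, hits matching 0 Gy levels.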"}, "[2]": {"tested_on": "γH2AX foci per nucleus in mouse submandibular gland", "assay": "In vivo radioprotection of mouse salivary gland: γH2AX foci per nucleus (IHC) 48 hours after 15 Gy, retroductal injection", "method": "Female SKH1 hairless mice, backcrossed 6 generations with C57BL/6J mice, aged 6-12 weeks were used in this study for in vitro assay development and drug discovery. Female C57BL/6J mice age 6-8 weeks were used for in vivo validation studies. […] Animals were maintained on a 12 hr light/dark cycle and group-housed with food and water available ad libitum.\nBriefly, 6-10 week old female C57Bl/6 J mice were anesthetized by intraperitoneal injection of sterile saline solution of 100 mg/kg ketamine and 10 mg/kg xylazine. Maxillary incisors were secured over a metal beam, while an elastic band provided tension from behind the mandibular incisors. The mouth was widened using a custom steel retractor to apply pressure to the buccal mucosa and the tongue was retracted and cotton placed in the oral cavity. The wire inset of a 32 G intracranial catheter was cut at […] to create a bevel. The beveled wire created a shallow puncture in the left salivary papilla. A beveled catheter section containing the wire insert for support was gently inserted into the puncture site. The catheter was removed, and 1 mg/kg atropine was administered by intraperitoneal injection. After 10 min, the needle of a Hamilton syringe, loaded with vehicle or drug solution, was inserted into the catheter, and the catheter was inserted into the orifice produced in the papilla. Drug solutions were injected by hand at 10 μl/min at a volume of 1 μl/g of body weight. Following injection, the pressure was maintained on the syringe for 1 min to ensure material retention before removal of the catheter.\nThe head and neck region was positioned over the slit of a custom collimator, which allowed body shielding.\nSubmandibular glands and SGm were isolated and fixed in 4% paraformaldehyde overnight at 4 °C. Tissues were paraffin-embedded and then cut into […] sections. […] Permeabilization was performed with 0.5% Triton X-100 in PBS for 5 minutes. […] Following a PBS rinse, […] DAPI (Invitrogen, Carlsbad, CA) in PBS was applied to sections for 5 minutes. Sections were washed thrice in PBS for 5 minutes and the slides were mounted using Immu-Mount mounting medium (Thermo). Microscopic images were acquired using a Leica TCS SP5 confocal microscope with a 100× oil immersion objective and Argon laser. Analysis of images was performed in ImageJ."}, "[3]": {"details": "in vivo; cited from earlier work"}, "[4]": {"details": "in vivo; cited from earlier work", "remark": "listed apart in the source"}, "COX-1": {"tested_on": "COX-1", "details": "role: inhibitor; cited from earlier work"}, "COX-2": {"tested_on": "COX-2", "details": "role: inhibitor; cited from earlier work"}, "lymphocyte cells": {"tested_on": "lymphocyte cells", "details": "cited from earlier work"}, "[5]": {"details": "phenylbutazone 50 mg/kg, corn oil"}},
  "note": "pEC50: −log10 of the molar value.",
  "data": [
    {"compound": "NCCCNCCS", "note": "[WR-1065]", "values": [
      {"measurement": "prevention of radiation-induced reduction of glutathione levels", "setting": "[1]; 0.1 mM, 15 Gy", "result": "ineffective"},
      {"measurement": "prevention of radiation-induced reduction of glutathione levels", "setting": "[1]; 0.4 mM, 15 Gy", "result": "ineffective"},
      {"measurement": "Glutathione (radioprotection)", "setting": "[1]; 1 mM", "result": "+"},
      {"measurement": "prevention of radiation-induced reduction of glutathione levels", "setting": "[1]; 1 mM, 15 Gy", "result": "significant protection"},
      {"measurement": "Glutathione (radioprotection)", "setting": "[1]; 4 mM", "result": "+"},
      {"measurement": "prevention of radiation-induced reduction of glutathione levels", "setting": "[1]; 4 mM, 15 Gy", "result": "significant protection"},
      {"measurement": "reduction in γH2AX foci per nucleus compared to 15 Gy controls", "setting": "[2]; WR-1065 50 mg/kg", "result": 0.5, "unit": "fold"},
      {"measurement": "γH2AX foci per nucleus versus 0 Gy controls", "setting": "[2]; WR-1065 50 mg/kg", "result": "No significant differences"}
    ]},
    {"compound": "Doripenem hydrate", "values": [
      {"measurement": "radioprotection in dose response, glutathione assay", "setting": "[1]; dose response, 15 Gy", "result": "protection only at higher concentrations"},
      {"measurement": "Estimated EC50, Glutathione", "setting": "[1]; 15 Gy", "result": 8.6, "unit": "µM"},
      {"measurement": "increase in γH2AX foci per nucleus compared to 0 Gy controls", "setting": "[2]; doripenem hydrate 26 mg/kg", "result": 2.7, "unit": "fold"},
      {"measurement": "reduction of γH2AX foci per nucleus relative to 15 Gy controls", "setting": "[2]; doripenem hydrate 26 mg/kg", "result": "did not reduce"}
    ]},
    {"compound": "CCCCC1C(=O)N(c2ccccc2)N(c2ccccc2)C1=O", "note": "[Phenylbutazone]", "values": [
      {"measurement": "concentration range of radioprotection, glutathione assay", "setting": "[1]; dose response, 15 Gy", "result": "0.1 to 100", "unit": "µM"},
      {"measurement": "Estimated EC50, Glutathione", "setting": "[1]; 15 Gy", "result": 0.08, "unit": "µM"},
      {"measurement": "reduction in γH2AX foci per nucleus compared to 15 Gy controls", "setting": "[2]; [5]", "result": 0.4, "unit": "fold"},
      {"measurement": "γH2AX foci per nucleus versus 0 Gy controls", "setting": "[2]; [5]", "result": "not significantly different from 0 Gy controls"},
      {"measurement": "bioavailability", "setting": "[3]", "result": "up to 90%"},
      {"measurement": "half-life", "setting": "[3]", "result": "50 to 105", "unit": "h"},
      {"measurement": "adverse effects", "setting": "[4]", "result": "rare but severe blood disorders, including anemia and leukopenia"},
      {"measurement": "COX-1 inhibition", "setting": "COX-1", "result": "inhibits"},
      {"measurement": "COX-2 inhibition", "setting": "COX-2", "result": "inhibits"}
    ]},
    {"compound": "CCn1cc(C(=O)O)c(=O)c2cc(F)c(N3CCNCC3)nc21", "note": "[Enoxacin (Penetrex)]", "values": [
      {"measurement": "radioprotection in dose response, glutathione assay", "setting": "[1]; dose response, 15 Gy", "result": "protection only at higher concentrations"},
      {"measurement": "Estimated EC50, Glutathione", "setting": "[1]; 15 Gy", "result": 2.4, "unit": "µM"},
      {"measurement": "reduction in γH2AX foci per nucleus compared to 15 Gy controls", "setting": "[2]; enoxacin 0.3 mg/kg", "result": 0.5, "unit": "fold"},
      {"measurement": "increase in γH2AX foci per nucleus", "setting": "[2]; enoxacin 0.3 mg/kg, comparator not given", "result": 1.6, "unit": "fold"},
      {"measurement": "pEC50", "setting": "lymphocyte cells; radioprotection, read-out: EC50, viability of lymphocyte cells", "result": 4.89},
      {"measurement": "radioprotection of lymphocytes", "setting": "lymphocyte cells; viability of lymphocytes as primary readout", "result": "robust radioprotectors"}
    ]}
  ]
}
